Experimental data from the NIST ThermoML archive (doi:10.1007/s10765-014-1759-1).
Numbers after ± are expanded uncertainties.

Settings: 101.33 kPa, Liquid; for viscosity: Capillary tube (Ostwald / Ubbelohde) method; for mass density: Vibrating tube method

Row | Compound | viscosity (293.15 K) [mPa·s] | mass density (293.15 K) [kg/m3] | viscosity (298.15 K) [mPa·s] | mass density (298.15 K) [kg/m3]
1 | CCCCCCC [heptane] | 0.412 ± 0.0053 | 684 ± 0.6 | 0.3895 ± 0.0052 | 679.7 ± 0.6
2 | CCc1ccccc1 [ethylbenzene] | 0.6735 ± 0.0066 | 867.1 ± 0.6 | 0.6318 ± 0.0064 | 862.7 ± 0.6
3 | CCCCCCCC [octane] | 0.5433 ± 0.0059 | 702.5 ± 0.6 | 0.5108 ± 0.0057 | 698.5 ± 0.6
4 | Cc1ccccc1 [toluene] | 0.5891 ± 0.0061 | 866.7 ± 0.6 | 0.5528 ± 0.006 | 862 ± 0.6
5 | C1CCCCC1 [cyclohexane] | 0.978 ± 0.0084 | 778.7 ± 0.3 | 0.8931 ± 0.0079 | 773.9 ± 0.3
